Test results as given in US20250304620A1, “ANTIMICROBIAL PEPTIDE AND APPLICATION THEREOF” (priority 2023, published 2025).
Converted amounts (≈) assume the structure as drawn. Marks after values point to notes of the source that are not given here. Non-standard residues stand in square brackets, D forms with d. Residues, ends and D or L forms follow the SMILES beside them. d2Nal = N[C@H](Cc1ccc2ccccc2c1)C(=O)O

Key:
[1] = system: Pseudomonas aeruginosa ATCC 27853; assay type: cell-based
Summary of the method: (§1)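 Broth microdilution (CLSI), twofold steps, MIC endpoint, 5× in parallel.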

[2] = system: Corynebacterium ATCC 7715; assay type: cell-based
Summary of the method: as §1

[3] = system: Candida krusei ATCC 6258; assay type: cell-based
Summary of the method: as §1

[4] = system: Candida tropicalis ATCC 750; assay type: cell-based
Summary of the method: as §1

[5] = system: Escherichia coli ATCC 25922; assay type: cell-based
Summary of the method: as §1

[6] = system: Serratia marcescens ATCC 29021; assay type: cell-based
Summary of the method: as §1

[7] = system: Candida albicans ATCC MYA-2876; assay type: cell-based
Summary of the method: as §1

[8] = system: Klebsiella pneumoniae ATCC 700603; assay type: cell-based
Summary of the method: as §1

[9] = system: Enterococcus ATCC 29212; assay type: cell-based
Summary of the method: as §1

[10] = system: Trichophyton ATCC MYA-4438; assay type: cell-based
Summary of the method: as §1

[11] = system: Staphylococcus aureus (NRS 384); settings: NRS 384, 3 h
Method: Trypsin (250 U/mg, pH=8.0) and AMPs (LV-1 to LV-30) were mixed in a ratio of 1:10 (w/w) and added to a reaction buffer (0.2 M sodium phosphate, 1 mM CaCl2), pH 7.5), and then incubated at 37° C. for 3 h.

[12] = system: vancomycin-resistant Enterococcus (VRE); assay type: cell-based
Summary of the method: (§2)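 Broth serial twofold dilution per CLSI standards, run 5 times in parallel, gave MIC values for the peptides against clinically common resistant strains.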

[13] = system: carbapenem-resistant Pseudomonas aeruginosa (CRPA); assay type: cell-based; settings: carbapenem-resistant (CRPA)
Summary of the method: as §2

[14] = system: carbapenem-resistant Escherichia coli (CREC); assay type: cell-based; settings: carbapenem-resistant (CREC)
Summary of the method: as §2

[15] = system: carbapenem-resistant Klebsiella pneumoniae (CRKP); assay type: cell-based; settings: carbapenem-resistant (CRKP)
Summary of the method: as §2

[16] = system: Methicillin-resistant Staphylococcus aureus (MRSA); assay type: cell-based; settings: Methicillin-resistant
Summary of the method: as §2

[17] = system: Shigella flexneri ATCC 12022; experiment: MIC against clinically common bacterial strain; assay type: cell-based
Summary of the method: as §1

[18] = system: Escherichia coli ATCC 25922; experiment: Oral formulations on mice with systemic bacterial infection; assay type: in vivo, ICR mice; settings: three times a day for 7 days; for Number of mice that died on each day after infection: day 4 / Number of mice that died on each day after infection: day 5 / Number of mice that died on each day after infection: day 6 / Number of mice that died on each day after infection: day 7 / Number of mice that died on each day after infection: day 8 / Average survival times (Days): n = 10; for Average survival times (Days): observed for 14 d
Summary of the method: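 Survival time and deaths were logged over a 14 d observation after oral gavage dosing (by body weight, thrice daily, 7 days, starting right after infection). Model: mixed-sex ICR mice, n=10 per group, intraperitoneal injection of E. coli ATCC 25922 suspension (0.2 mL, 1×10^7 CFU/mL).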

[19] = system: Pseudomonas aeruginosa ATCC 27853; experiment: Injectable formulations on mice infected with peritonitis; assay type: in vivo, ICR mice; settings: twice a day for 3 days; for Number of mice that died on each day after infection: day 1 / Number of mice that died on each day after infection: day 2 / Number of mice that died on each day after infection: day 3 / Number of mice that died on each day after infection: day 4 / Number of mice that died on each day after infection: day 5 / Average survival times (Days): n = 10; for Average survival times (Days): observed for 14 d
Summary of the method: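 Survival readout: deaths and survival time tracked for 14 d. Treatment was tail-vein injection by body weight, twice a day for 3 consecutive days, starting right after intraperitoneal challenge with 0.2 mL of 1×10^9 CFU/mL P. aeruginosa ATCC 27853 in male and female ICR mice.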

What does the source list for `CC(=O)N[C@H](CCCNC(=N)N)C(=O)N[C@H](CCCCN)C(=O)N[C@H](CC(C)C)C(=O)N[C@H](CC(C)C)C(=O)N[C@H](Cc1ccc2ccccc2c1)C(=O)N[C@H](CCCCN)C(=O)N[C@H](CC(C)C)C(=O)N[C@H](CCCCN)C(=O)N[C@H](Cc1ccc2ccccc2c1)C(=O)N[C@H](CCCCN)C(=O)N[C@H](CCCNC(=N)N)C(N)=O` [LV-18] (Ac-[dR][dK][dL][dL][d2Nal][dK][dL][dK][d2Nal][dK][dR]-NH2)?
MIC Pseudomonas aeruginosa ATCC 27853 [1]: 1 µg/mL (≈ 0.618 µM); MIC Corynebacterium ATCC 7715 [2]: 2 µg/mL (≈ 1.24 µM); MIC Candida krusei ATCC 6258 [3]: 4 µg/mL (≈ 2.47 µM); MIC Candida tropicalis ATCC 750 [4]: 2 µg/mL (≈ 1.24 µM); MIC Escherichia coli ATCC 25922 [5]: 1 µg/mL (≈ 0.618 µM); MIC Serratia marcescens ATCC 29021 [6]: 4 µg/mL (≈ 2.47 µM); MIC Candida albicans ATCC MYA-2876 [7]: 4 µg/mL (≈ 2.47 µM); MIC Klebsiella pneumoniae ATCC 700603 [8]: 2 µg/mL (≈ 1.24 µM); MIC Enterococcus ATCC 29212 [9]: 4 µg/mL (≈ 2.47 µM); MIC Trichophyton ATCC MYA-4438 [10]: 16 µg/mL (≈ 9.89 µM); Trypsin MIC [11]: 1 µg/mL; MIC VRE [12]: 8 µg/mL (≈ 4.94 µM); MIC CRPA [13]: 4 µg/mL (≈ 2.47 µM); MIC CREC [14]: 2 µg/mL (≈ 1.24 µM); MIC CRKP [15]: 2 µg/mL (≈ 1.24 µM); MIC MRSA [16]: 4 µg/mL (≈ 2.47 µM); MIC Shigella flexneri ATCC 12022 [17]: 8 µg/mL (≈ 4.94 µM); Number of mice that died on each day after infection: day 4 ([18]; 0.2 mg/kg gavage): 0 Mouse; Number of mice that died on each day after infection: day 5 ([18]; 0.2 mg/kg gavage): 1 Mouse; Number of mice that died on each day after infection: day 6 ([18]; 0.2 mg/kg gavage): 2 Mouse; Number of mice that died on each day after infection: day 7 ([18]; 0.2 mg/kg gavage): 1 Mouse; Number of mice that died on each day after infection: day 8 ([18]; 0.2 mg/kg gavage): 0 Mouse; Average survival times (Days) ([18]; 0.2 mg/kg gavage): 10.8*** Days; Number of mice that died on each day after infection: day 4 ([18]; 1 mg/kg gavage): 0 Mouse; Number of mice that died on each day after infection: day 5 ([18]; 1 mg/kg gavage): 1 Mouse; Number of mice that died on each day after infection: day 6 ([18]; 1 mg/kg gavage): 0 Mouse; Number of mice that died on each day after infection: day 7 ([18]; 1 mg/kg gavage): 1 Mouse; Number of mice that died on each day after infection: day 8 ([18]; 1 mg/kg gavage): 0 Mouse; Average survival times (Days) ([18]; 1 mg/kg gavage): 12.4**** Days; Number of mice that died on each day after infection: day 4 ([18]; 5 mg/kg gavage): 0 Mouse; Number of mice that died on each day after infection: day 5 ([18]; 5 mg/kg gavage): 1 Mouse; Number of mice that died on each day after infection: day 6 ([18]; 5 mg/kg gavage): 2 Mouse; Number of mice that died on each day after infection: day 7 ([18]; 5 mg/kg gavage): 0 Mouse; Number of mice that died on each day after infection: day 8 ([18]; 5 mg/kg gavage): 0 Mouse; Average survival times (Days) ([18]; 5 mg/kg gavage): 11.5**** Days; survival time of mice infected with Escherichia coli ([18]; gavage, observed 14 d): superior to those of the Levofloxacin group; Number of mice that died on each day after infection: day 1 ([19]; 0.2 mg/kg via tail vein): 2 Mouse; Number of mice that died on each day after infection: day 2 ([19]; 0.2 mg/kg via tail vein): 1 Mouse; Number of mice that died on each day after infection: day 3 ([19]; 0.2 mg/kg via tail vein): 1 Mouse; Number of mice that died on each day after infection: day 4 ([19]; 0.2 mg/kg via tail vein): 1 Mouse; Number of mice that died on each day after infection: day 5 ([19]; 0.2 mg/kg via tail vein): 1 Mouse; Average survival times (Days) ([19]; 0.2 mg/kg via tail vein): 7.2** Days; Number of mice that died on each day after infection: day 1 ([19]; 1 mg/kg via tail vein): 0 Mouse; Number of mice that died on each day after infection: day 2 ([19]; 1 mg/kg via tail vein): 1 Mouse; Number of mice that died on each day after infection: day 3 ([19]; 1 mg/kg via tail vein): 0 Mouse; Number of mice that died on each day after infection: day 4 ([19]; 1 mg/kg via tail vein): 1 Mouse; Number of mice that died on each day after infection: day 5 ([19]; 1 mg/kg via tail vein): 1 Mouse; Average survival times (Days) ([19]; 1 mg/kg via tail vein): 10.9**** Days; Number of mice that died on each day after infection: day 1 ([19]; 5 mg/kg via tail vein): 0 Mouse; Number of mice that died on each day after infection: day 2 ([19]; 5 mg/kg via tail vein): 2 Mouse; Number of mice that died on each day after infection: day 3 ([19]; 5 mg/kg via tail vein): 1 Mouse; Number of mice that died on each day after infection: day 4 ([19]; 5 mg/kg via tail vein): 0 Mouse; Number of mice that died on each day after infection: day 5 ([19]; 5 mg/kg via tail vein): 0 Mouse; Average survival times (Days) ([19]; 5 mg/kg via tail vein): 10.5**** Days; survival time of mice infected with Pseudomonas aeruginosa ([19]; tail vein, observed 14 d): superior to those of the Levofloxacin group
